Measured values from ChEMBL document CHEMBL4396864, “Small-Molecule Modulators of the Hypoxia-Inducible Factor Pathway: Development and Therapeutic Applications” (J Med Chem, 2019).
Each block holds one molecule with its values, some of them ahead of it.

What was measured:
[1] = biological target: T1, CREB-binding protein/Histone acetyltransferase p300 (Homo sapiens, UniProt Q09472+Q92793); test: Inhibition of GST-tagged p300 (unknown origin)/CBP (unknown origin) protein-protein interaction; format: protein assay
[2] = biological target: Hypoxia-inducible factor 1-alpha (Homo sapiens, UniProt Q16665); test: Inhibition of HIF-1alpha in human U373 cells; format: cell-based, U-373MG ATCC
[3] = biological target: T1, CREB-binding protein/Histone acetyltransferase p300; test: Inhibition of GST-tagged p300 (unknown origin)/CBP (unknown origin) protein-protein interaction by fluorescence polarization assay
[4] = biological target: Histone acetyltransferase p300 (Homo sapiens, UniProt Q09472); test: Binding affinity to p300 (unknown origin)
[5] = test system: Hep 3B2; test: Downregulation of VEGF protein level in human Hep3B cells after 8 hrs by ELISA; format: functional, cell-based

Sequence of Hypoxia-inducible factor 1-alpha (Q16665 whole entry): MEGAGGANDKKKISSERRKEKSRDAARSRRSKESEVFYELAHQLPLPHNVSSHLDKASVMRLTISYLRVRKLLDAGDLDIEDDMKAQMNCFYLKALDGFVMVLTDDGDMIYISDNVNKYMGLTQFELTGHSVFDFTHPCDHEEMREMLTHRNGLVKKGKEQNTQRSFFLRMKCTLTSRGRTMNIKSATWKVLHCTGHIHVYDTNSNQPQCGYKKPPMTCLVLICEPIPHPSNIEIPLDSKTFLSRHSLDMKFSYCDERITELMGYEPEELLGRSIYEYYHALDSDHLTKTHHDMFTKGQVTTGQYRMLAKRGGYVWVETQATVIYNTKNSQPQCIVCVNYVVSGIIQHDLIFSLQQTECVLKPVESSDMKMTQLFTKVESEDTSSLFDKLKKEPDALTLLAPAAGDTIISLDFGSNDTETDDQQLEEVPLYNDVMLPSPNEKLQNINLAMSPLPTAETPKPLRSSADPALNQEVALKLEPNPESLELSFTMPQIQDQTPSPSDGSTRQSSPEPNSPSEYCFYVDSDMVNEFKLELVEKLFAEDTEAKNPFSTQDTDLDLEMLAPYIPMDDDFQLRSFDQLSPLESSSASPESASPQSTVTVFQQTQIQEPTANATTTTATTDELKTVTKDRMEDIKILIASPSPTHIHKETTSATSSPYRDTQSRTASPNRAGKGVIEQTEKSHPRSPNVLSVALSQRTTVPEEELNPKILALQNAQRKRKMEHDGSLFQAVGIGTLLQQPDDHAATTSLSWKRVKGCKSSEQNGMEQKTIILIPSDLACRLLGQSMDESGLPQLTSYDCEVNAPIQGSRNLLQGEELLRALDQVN
Sequence of Histone acetyltransferase p300 (Q09472 whole entry): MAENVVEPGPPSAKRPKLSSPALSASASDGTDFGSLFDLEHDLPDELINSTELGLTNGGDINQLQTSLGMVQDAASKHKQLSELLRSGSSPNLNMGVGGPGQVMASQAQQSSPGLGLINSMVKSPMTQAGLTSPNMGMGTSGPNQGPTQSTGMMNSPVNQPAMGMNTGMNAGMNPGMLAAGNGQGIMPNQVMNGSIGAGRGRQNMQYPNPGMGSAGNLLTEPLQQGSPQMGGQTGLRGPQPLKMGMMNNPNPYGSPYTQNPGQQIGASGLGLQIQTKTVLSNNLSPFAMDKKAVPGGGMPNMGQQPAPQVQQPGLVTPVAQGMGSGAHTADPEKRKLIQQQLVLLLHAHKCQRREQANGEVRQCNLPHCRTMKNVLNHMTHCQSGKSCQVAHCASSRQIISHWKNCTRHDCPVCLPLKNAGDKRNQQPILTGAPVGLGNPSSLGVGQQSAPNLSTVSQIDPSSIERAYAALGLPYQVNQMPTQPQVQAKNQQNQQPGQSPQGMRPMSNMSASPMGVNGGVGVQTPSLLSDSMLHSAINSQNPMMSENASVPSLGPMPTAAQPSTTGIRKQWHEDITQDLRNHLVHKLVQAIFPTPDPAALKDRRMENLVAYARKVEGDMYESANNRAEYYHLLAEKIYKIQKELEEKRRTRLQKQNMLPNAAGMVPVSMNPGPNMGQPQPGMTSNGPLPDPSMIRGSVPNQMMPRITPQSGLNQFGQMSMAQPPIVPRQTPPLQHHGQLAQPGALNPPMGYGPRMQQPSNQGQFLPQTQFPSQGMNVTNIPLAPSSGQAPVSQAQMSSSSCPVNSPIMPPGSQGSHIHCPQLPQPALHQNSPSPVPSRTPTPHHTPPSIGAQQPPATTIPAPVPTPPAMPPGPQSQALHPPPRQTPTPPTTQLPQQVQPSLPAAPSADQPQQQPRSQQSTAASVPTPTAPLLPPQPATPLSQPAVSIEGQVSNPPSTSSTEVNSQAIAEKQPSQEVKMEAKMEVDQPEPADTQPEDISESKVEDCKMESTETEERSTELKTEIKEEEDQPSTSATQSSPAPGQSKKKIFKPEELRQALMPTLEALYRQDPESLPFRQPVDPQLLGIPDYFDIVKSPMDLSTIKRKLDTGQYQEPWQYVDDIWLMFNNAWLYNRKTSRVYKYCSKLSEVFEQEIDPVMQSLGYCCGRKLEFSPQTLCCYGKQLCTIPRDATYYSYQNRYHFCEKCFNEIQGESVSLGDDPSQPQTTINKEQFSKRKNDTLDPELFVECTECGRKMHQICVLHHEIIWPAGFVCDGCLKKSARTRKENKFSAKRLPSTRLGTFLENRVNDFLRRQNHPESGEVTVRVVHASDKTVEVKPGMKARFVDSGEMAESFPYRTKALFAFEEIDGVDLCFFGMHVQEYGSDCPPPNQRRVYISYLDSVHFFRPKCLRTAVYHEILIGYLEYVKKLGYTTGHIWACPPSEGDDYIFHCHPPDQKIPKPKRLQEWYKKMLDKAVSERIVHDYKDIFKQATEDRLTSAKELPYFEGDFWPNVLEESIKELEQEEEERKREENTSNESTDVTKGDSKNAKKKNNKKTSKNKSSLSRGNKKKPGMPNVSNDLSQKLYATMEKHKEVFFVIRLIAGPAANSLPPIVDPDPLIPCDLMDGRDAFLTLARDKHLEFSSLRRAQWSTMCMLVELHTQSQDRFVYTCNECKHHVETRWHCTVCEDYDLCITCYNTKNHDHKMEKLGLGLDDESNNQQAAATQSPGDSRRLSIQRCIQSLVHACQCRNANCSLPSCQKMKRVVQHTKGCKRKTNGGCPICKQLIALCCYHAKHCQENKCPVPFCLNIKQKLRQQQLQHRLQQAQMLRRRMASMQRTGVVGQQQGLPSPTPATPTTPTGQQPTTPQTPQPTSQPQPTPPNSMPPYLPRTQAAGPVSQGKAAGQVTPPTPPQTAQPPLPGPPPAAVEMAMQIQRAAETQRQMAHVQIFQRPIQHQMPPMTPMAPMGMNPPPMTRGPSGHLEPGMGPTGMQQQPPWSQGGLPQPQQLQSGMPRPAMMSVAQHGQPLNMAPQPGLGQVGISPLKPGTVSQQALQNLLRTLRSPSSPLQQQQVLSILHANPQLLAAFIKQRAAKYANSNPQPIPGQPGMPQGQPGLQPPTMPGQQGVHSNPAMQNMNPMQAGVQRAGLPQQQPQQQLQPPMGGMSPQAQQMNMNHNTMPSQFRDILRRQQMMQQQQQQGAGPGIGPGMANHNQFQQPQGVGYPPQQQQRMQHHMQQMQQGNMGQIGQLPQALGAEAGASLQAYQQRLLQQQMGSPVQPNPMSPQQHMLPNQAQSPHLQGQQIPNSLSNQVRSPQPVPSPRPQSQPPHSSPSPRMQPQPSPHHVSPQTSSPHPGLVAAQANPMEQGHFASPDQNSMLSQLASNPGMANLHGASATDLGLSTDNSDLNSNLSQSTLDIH

IC50 [1]: 107000 nM
Structure (SMILES): CC(C)Cc1cc(CNC(=O)N2CCN(CC(=O)Nc3ccccc3Cl)CC2)nn1-c1ccccc1.Cl

Structure (SMILES): COc1cc([C@@H]2c3cc4c(cc3[C@@H](Nc3ccc([N+](=O)[O-])cc3)[C@H]3COC(=O)[C@H]23)OCO4)cc(OC)c1O
IC50 [2]: 1 to 5 nM

Structure (SMILES): CN1C(=O)[C@]2(Cc3ccc(CCc4ccc(C[C@@]56SS[C@@](CO)(C(=O)N5C)N(C)C6=O)cc4)cc3)SS[C@@]1(CO)C(=O)N2C
IC50 [3]: 600 nM

Structure (SMILES): CN1C(=O)[C@]2(Cc3ccc(C[C@@]45SS[C@@](CO)(C(=O)N4C)N(C)C5=O)cc3)SS[C@@]1(CO)C(=O)N2C
IC50 [3]: 1500 nM

Kd [4]: 690 nM
Structure (SMILES): CC(C)C[C@H](NC(=O)[C@H](C)NC(=O)[C@H](CCCNC(=N)N)NC(=O)[C@H](C)N1CC/C=C\CC(=O)N[C@@H](CCC(=O)O)C(=O)N[C@@H](CC(C)C)C1=O)C(=O)N[C@@H](CC(=O)O)C(=O)N[C@@H](CCC(N)=O)C(N)=O

Structure (SMILES): CN1C(=O)[C@@]23C[C@]4([C@]56C[C@@]78SS[C@@](CO)(C(=O)N7[C@H]5Nc5ccccc56)N(C)C8=O)c5ccccc5N[C@@H]4N2C(=O)[C@]1(CO)SS3 [CHAETOCIN]
IC50 [5]: 100 nM
